Data reported in patent publication US20250101042A1, “KRAS G12D MODULATING COMPOUNDS” (Gilead Sciences, Inc., priority 2023, published 2025).

Columns and labels:
GP2D (KRAS G12D) cells = assay: 2D Cell Viability Assay (CellTiter-Glo); assay type: cell-based; conditions: 4 days, CellTiter-Glo luminescence
Procedure: Example B. 2D Cell Viability Assay
Compounds were tested in a 384-well format for their ability to inhibit the viability of GP2D (KRAS G12D) cells in 2D assays. Compounds were serially diluted (1:3) in DMSO. The LabCyte ECHO Acoustic dispenser system was used to pre-spot assay plates with 200 nL of test molecule per well. 1000 cells/well (40 μL volume per well) in RPMI medium with 10% FBS, and Penicillin-Streptomycin-Glutamine were plated in pre-spotted 384-well plates (Greiner, Catalog #781076) on the BioTEK EL406 liquid dispenser with a 5 μL dispensing cassette (BioTek 7170011). The plates were incubated at 37° C., 5% CO2 for 4 days before addition of CellTiter-Glo (CTG) reagent and measurement of luminescence signal. EC50 values were defined as the compound concentration that causes a 50% decrease in luminescence signal and were calculated using a sigmoidal dose-response model to generate curve fits.

GDP-loaded KRAS G12D = GDP-loaded KRAS G12D (Homo sapiens, UniProt P01116, G12D); assay: KRAS G12D (GDP) Biochemical Assay (TR-FRET probe displacement); assay type: binding; conditions: 0.5 nM enzyme, 2 hours at room temperature
Chain of GDP-loaded KRAS G12D (P01116 1-188 isoform P01116-2 G12D): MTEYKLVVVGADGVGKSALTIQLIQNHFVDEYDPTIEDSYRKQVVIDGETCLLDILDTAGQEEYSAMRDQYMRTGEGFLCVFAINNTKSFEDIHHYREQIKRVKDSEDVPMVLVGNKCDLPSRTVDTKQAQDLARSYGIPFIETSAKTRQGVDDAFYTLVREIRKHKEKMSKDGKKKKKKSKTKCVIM
Procedure: Example A. KRAS G12D (GDP) Biochemical Assay
Compounds were tested for binding to GDP-loaded KRAS G12D in a 384-well assay format using a TR-FRET probe displacement assay in buffer consisting of 50 mM Hepes (pH 7.4), 150 mM NaCl, 5 mM MgCl2 and 0.005% Tween-20. […] Compounds were serially diluted (1:3) in DMSO. The LabCyte ECHO Acoustic dispenser system was used to pre-spot the assay plates (384-well Non-Binding Surface plates, Corning, Catalog #3824) with 50 nL of compound. The compounds were pre-incubated with 5 μL of 2× final enzyme concentration for 30 minutes before adding 5 μL of 2× final concentration of Eu-streptavidin and TR-FRET probe (10 μL final reaction volume). The plates were incubated at room temperature for 2 hours before measuring TR-FRET ratio on the Envision plate reader. IC50 values were defined as the compound concentration that causes a 50% decrease in TR-FRET ratio and were calculated using a sigmoidal dose-response model to generate curve fits.

| SMILES | EC50 (GP2D (KRAS G12D) cells; GP2d, 96 h) [nM] | IC50 (GDP-loaded KRAS G12D) [nM] | EC50 (GP2D (KRAS G12D) cells) [nM] |
| --- | --- | --- | --- |
| C#Cc1c(F)ccc2cc(N)nc(-c3c(F)c4c5c(nc(OC[C@@]67CCCN6C[C@H](F)C7)nc5c3F)N3C[C@H]5CC[C@H](N5)[C@H]3CCC4)c12 [Example 61, (S)-1-((1S,4R,15aR)-10,12-difluoro-8-(((2R,7aS)-2-fluorotetrahydro-1H-pyrrolizin-7a(5H)-yl)methoxy)-2,3,4,5,13,14,15,15a-octahydro-1H-1,4-epiminoazepino[1′,2′:1,8]azocino[2,3,4-de]quinazolin-11-yl)-8-ethynyl-7-fluoroisoquinolin-3-amine] | 0.88 | 0.02 | – |
| Cc1cc(N)nc(-c2c(F)c3c4c(nc(OC[C@@]56CCCN5C[C@H](F)C6)nc4c2F)N2C[C@H]4CC[C@H](N4)[C@H]2CC3)c1C(F)(F)F (single isomer, unassigned) [Example 22] | – | 0.08 | 1.6 |
| C#Cc1c(F)ccc2cc(N)nc(-c3c(F)c4c5c(nc(OC[C@@]67CCCN6C[C@H](F)C7)nc5c3F)N3C[C@H]5CC[C@H](N5)[C@H]3CC4)c12 (atropisomer, axis not shown; (aR)) [Example 62, 1-((1S,4R,11S,14aR)-10,12-difluoro-8-(((2R,7aS)-2-fluorotetrahydro-1H-pyrrolizin-7a(5H)-yl)methoxy)-1,2,3,4,5,13,14,14a-octahydro-1,4-epiminoazepino[1′,2′:1,7]azepino[2,3,4-de]quinazolin-11-yl)-8-ethynyl-7-fluoroisoquinolin-3-amine] | 2.5 | 0.03 | – |
| Cc1cc(N)nc(-c2c(Cl)c3c4c(nc(OC[C@@]56CCCN5C[C@H](F)C6)nc4c2F)N2C[C@H]4CC[C@H](N4)[C@H]2CC3)c1C(F)(F)F (single isomer, unassigned) [Example 5] | – | 1.1 | 14 |
| C[C@H]1Cc2c(F)c(-c3ncc(F)c4sc(N)c(C#N)c34)c(F)c3nc(OC[C@@]45CCCN4C[C@H](F)C5)nc(c23)N2C[C@H]3CC[C@H](N3)[C@H]12 (single isomer, unassigned) [Example 50] | 2.6 | 0.12 | – |
| Cc1cc(N)nc(-c2c(Cl)c3c4c(nc(OC[C@@]56CCCN5C[C@H](F)C6)nc4c2F)N2C[C@H]4CC[C@H](N4)[C@H]2CCC3)c1C(F)(F)F (single isomer, unassigned) [Example 3] | – | 87 | > 100 |
